We go through two molecules from article PMC9881157 (2023).

Common to all, as to assay: RNA-DRaCALA titration
Assay [1] deals with To-B (T. oceani ilvE, biotinylated) (RNA, riboswitch) AGGAAGUGUACCUUAGGGUUCCGGCCAUAAGGCGUCAGCGACCGAGCGGUACAAUCCGGGGAAACCCGGAACACCGUGAGCAUAAAAGGCUCCAGCGGCAAGUUCCUAAAAGAC
The conditions noted are these: 10 mM MgCl2; 20 mM Tris-HCl pH 7.5, 37 °C; 1 nM 32P-ppGpp.

Assay [2] relates to C16 (RNA, riboswitch) CAGAAGGGUACCUAGGGUUCCGUCCAUUUGAUUCAAGGGAGUCUGGACCAAGCGGUAUCGGCACCGGGAUAUGGUGUACACCGUGGGGAUAAAAGCCUCCAGCGGCAGGUUCUGAUGCAAAAAAAGCCACCGCCACCGCCACCGCCACCGCCACCGCCACCGCC
The conditions noted are these: 10 mM MgCl2; 20 mM Tris-HCl pH 7.5, 37 °C; 10 nM 32P-ligand.

The subject of assay [3] is C21 (RNA, riboswitch) UAAGAGGCUAACUAGGGUUCCGAUGGUUUCAUGCUGGUCCAAGCGUUAGCAAACAUACUGAGGAAGGUAUGUUACACCGUUAGUACAAAAGGCUCGGCGGGAGGUCUUAUCCUUAAAAAAGCCACCGCCACCGCCACCGCCACCGCCACCGCCACCGCC
The conditions noted are these: 10 mM MgCl2; 20 mM Tris-HCl pH 7.5, 37 °C; 10 nM 32P-ligand.

For the molecule `Nc1nc2c(ncn2[C@@H]2O[C@H](COP(=O)(O)OP(=O)(O)O)[C@@H](OP(=O)(O)OP(=O)(O)O)[C@H]2O)c(=O)[nH]1`, the Kd amounted to 0.0221 ± 0.0016 µM in assay [1], 0.033 ± 0.0037 µM in assay [2] and 0.654 ± 0.121 µM in assay [3].

Molecule `Nc1nc2c(ncn2[C@@H]2O[C@H](COP(=O)(O)OP(=O)(O)OP(=O)(O)O)[C@@H](OP(=O)(O)OP(=O)(O)O)[C@H]2O)c(=O)[nH]1` returned a Kd in assay [2] of 0.137 ± 0.017 µM.

In general, Kd refers to a measure of binding affinity in units of concentration.
